Results published in article PMC8244912, “An oxytocin/vasopressin-related neuropeptide modulates social foraging behavior in the clonal raider ant” (PLoS Biology, 2021).
“Also recorded” adds a separate entry of the source. Where a SMILES comes first, the peptide text is derived from it. Bridges are numbered along the chain shown (N, C = ends).

Tested on: O. biroi inotocin receptor (itcR)
Assay: Calcium flux, inotocin receptor co-transfected with G proteins or empty vector
Type: cell-based, Ooceraea biroi
Experimental: Human embryonic kidney 293T (HEK293T) cells were cultured in DMEM supplemented with 10% FBS at 37°C in a tissue culture incubator with a humidified atmosphere containing 5% CO2. Cells were plated in 10-cm dishes, and, when they reached 60% to 70% confluency, they were transfected with a pcDNA3.3 vector containing approximately 1 ng of inotocin receptor cDNA or an empty vector as a control using Lipofectamine 2000. Cells were transfected directly into poly-D-lysine–coated 384-well plates and incubated for 48 hours at 37°C. Subsequently, cells were incubated with FLIPR Calcium 4 Assay kit dye for 1 hour in the incubator. The fluorescence (excitation, 488 nm; emission, 530 nm) of the wells was recorded using a Flex Station II 384 (Molecular Devices, San Jose, California, USA), and a dose curve of inotocin (0 to 3 μM) was applied to the wells, in sextuplicate (see below for inotocin peptide synthesis). We calculated the EC50 values using Prism (GraphPad Software version 8) nonlinear regression, 4-parameter logistic curve fit. Dose curves were repeated at least 3 times on independently prepared samples and different days. Results were consistent across replicates, and example dose curves are shown in Fig 1C and S4A Fig. Control experiments are shown in S2–S5 Figs.
(C and D) Co-transfection with Gq alpha 16. (E and F) Co-transfection with Gq alpha with Gi alpha C term chimera. […]

For `CC[C@H](C)[C@@H]1NC(=O)[C@H](CC(C)C)NC(=O)[C@@H](N)CSSC[C@@H](C(=O)N2CCC[C@H]2C(=O)N[C@@H](CCCNC(=N)N)C(=O)NCC(N)=O)NC(=O)[C@H](CC(N)=O)NC(=O)[C@H]([C@@H](C)O)NC1=O` [Inotocin] (H-CLITNCPRG-NH2; disulfide 1-6; N-terminus and C-terminus assumed), which “calcium response” value (co-transfection with Gq alpha 16, Gq alpha with Gi alpha C term chimera, or Gq alpha with Go alpha C term chimera compared with empty vector) is on record?
The value was “does not require co-transfection with a G-protein”.

And the “calcium response” value (itcR co-transfected with empty vector (no G protein), 28°C or constantly 37°C)?
Its value is “response in a dose dependent manner; also recorded: show calcium responses when stimulated with inotocin”.
